Reference: patent US20040039047A1 (priority 1998, published 2004)

Key:
[1] = test system: human epidennoid cells, virally infected with HSV-2; conditions: cited from earlier work
[2] = test system: human epidennoid cells, virally infected with HSV-2; conditions: cited from earlier work; remark: listed apart in the source
[3] = test system: human epidennoid cells, virally infected with HSV-2

CC(=O)OC[C@]12CCC(C)=C[C@H]1O[C@@H]1[C@H](O)[C@@H](OC(C)=O)[C@@]2(C)[C@]12CO2 [DAS]
Trichothecene in vitro concentration, Inhibitory 80% [1]: 4.0 ng/mL | Trichothecene in vitro concentration, Inhibitory 100% [1]: 5.0 ng/mL | cell viability [2]: Neither reduced cell viability | Trichothecene in vitro concentration, Cytotoxic Hi [3]: 200 ng/mL | Trichothecene in vitro concentration, Cytotoxic Lo [3]: 6 ng/mL
